{
  "source": "patent US20040141944A1",
  "about": "“Inhibition of xenoreactive antibodies” (priority 1998, published 2004)",
  "key": {"[1]": {"tested_on": "anti-Gal antibodies in baboon serum", "experiment": "competition ELISA, inhibition of xenoreactive antibody activity (IC50)", "type": "binding", "conditions": "for IC50 (FIG. 24): mass per volume of polymer, new pipette tip for each addition", "protocol": "Principle of the assay: A competition ELISA was set up in such a way that Gal-molecules linked to human serum albumin and immobilized onto a microtiter plate and Gal-molecules linked to PEG compete for anti-Gal antibodies in baboon serum. The antibodies binding to the Gal-HSA were visualized using secondary antibodies to these antibodies with appropriate color development agents. The color in the case in which no Gal-PEG was added was defined as 100%. The IC50 was defined, for FIG. 3, as the concentration of Gal-PEG needed to inhibit 50% of the color development when trying to detect antibodies immobilized onto the Gal-HSA plate. For FIG. 24, the IC50 is defined in terms of mass per volume, e.g. mg/mL, of polymer.\nBriefly, a 96 well microtiter was coated with 100 ul/well of a 30 ug/mL solution of αGal(1,3)Gal β 1-4 GlcNAc-human serum albumin (Gal-HSA) and incubated for 90 minutes at room temperature. After incubation with Gal-HSA, the plate was blocked with 1% HSA in PBS for 60 minutes.\nWhile the microtiter plate was coated and blocked, samples were prepared as follows: Fifteen different dilution solutions were prepared for 1 plate. The first dilution solution was 1% HSA in PBS. […] were obtained by preparing a 2.5 mL stock solution of 10 mM αGal(1,3)Gal β 1-4 GlcNAc in 1% HSA/PBS and then serially diluting 1/10 three times. Dilution solutions 6-15 were obtained by preparing a 2.5 mL stock solution of the first concentration of modified PEG and then serially diluting 1/10 nine times in 1% HSA in PBS.\nThe plate was incubated for 90 minutes at 4° C. The plate was washed five times with PBS containing 0.5% Tween 20 and blot dried.\nWhen assaying for xenoreactive IgM, 100 ul/well of Goat anti-human IgM-biotin antibody, diluted 1/4000 in 1% HSA/PBS, was added.\nWhen assaying for xenoreactive IgG, 100 ul/well of Goat anti-human IgG-biotin antibody, diluted 1/4000 in 1% HSA/PBS, was added.\nThe biotinylated secondary antibody was incubated for one hour at 4° C. and afterwards the plate was washed five times with PBS containing 0.5% Tween 20 and blot dried. Hereafter, 100 ul/well streptavidin-alkaline phosphatase conjugate was added at a dilution of 1/4000 in 1% HSA/PBS and incubated for 30 minutes at room temperature. The microtiter plate was washed five times with PBS containing 0.5% Tween 20 and blot dried. 150 ul developer per well was added and the plate incubated for 30 minutes at room temperature. The color development was stopped by addition of 40 ul/well of 3 M NaOH. The plate was read in a plate reader at wavelength of 405 nm.\nThe IC50 data was calculated from the percent inhibition from the dilution of baboon control in 1% HSA/PBS which gave this highest point within the linear range.\n% Inhibition=(([OD of BC in HSA]−[OD of BC in αGal(1,3)Gal β 1-4 GlcNAc or PEG-(αGal(1,3)Gal β 1-4 GlcNAc)x])/OD of BC in HSA)*100"}, "[2]": {"experiment": "presence of 810S in baboon serum at day 30 (competition with human XNA binding to GAL-HSA)", "type": "in vivo", "conditions": "day 30 serum", "description": "To investigate whether 810S was still in baboon serum by day 30, serum was mixed with human serum and analyzed by ELISA for competition with human XNA binding to GAL-HSA."}, "[3]": {"tested_on": "IgM and IgG antibodies directed against the α-gal epitope (XNA)", "experiment": "810S vs immunoapheresis: circulating α-gal antibodies (serum ELISA)", "type": "in vivo, baboon", "protocol": "(§1) FIG. 26 is a graph of IgM XNA Levels: 810S vs IP-treated baboons. Baboons were either treated with 810S (50 mg/kg) every 3 days for a total of 6 treatments, or underwent a total of 6 immunoapheresis treatments using α-gal columns every 3 days. Serum from each baboon was analyzed by ELISA for IgM antibodies directed against the α-gal epitope. The percent IgM XNAs remaining were calculated using baseline values from each animal as 100%.\nas §1, with “FIG. 27” for “FIG. 26”, “of IgG” for “of IgM”, “for IgG” for “for IgM”, “the a -gal” for “the α-gal”\n(§2) A total of 6 baboons were used. Three baboons (designated 51-98, 48-98 and 47-98) underwent immunoapheresis (IP) using α-gal columns, with plasma from 3 blood volumes being passed over the columns every 3 days for a total of 6 treatments. Three other baboons (designated 46-98, 52-98, 50-98) received IV infusions of 810S at 50 mg/kg every 3 days for a total of 6 treatments. No immunosuppression or exposure to pig organs was included in the protocol.\n(§3) In both groups, serum samples and blood were collected to measure α-gal antibody levels and ASCs during the treatment period and during a follow-up period out to approximately 150-180 days."}, "total IgM and total IgG": {"tested_on": "total IgM and total IgG", "experiment": "810S-treated baboons: total IgM and total IgG by ELISA", "type": "in vivo, baboon", "conditions": "all 3 animals, throughout the experiment", "protocol": "FIG. 28 is a graph of baboon 46-98 antibody response to 810S. Baboon 46-98 was treated with 810S (50 mg/kg) every 3 days for a total of 6 treatments. Serum was analyzed for IgM and IgG antibodies directed against the α-gal epitope (XIgM or XIgG), as well as for total IgM (TotIgM) or total IgG (TotIgG) by ELISA. The percent antibody remaining was calculated using baseline values as 100%.\nas §2"}, "[4]": {"tested_on": "α-gal antibody secreting cells (ASCs)", "experiment": "810S vs immunoapheresis: peripheral α-gal antibody secreting cells (ELISPOT)", "type": "in vivo, baboon", "protocol": "(§4) FIG. 34 compares the IgG response between IP and TPC (810) treated baboons. Baboons were either treated with 810S (50 mg/kg) every 3 days for a total of 6 treatments, or underwent a total of 6 immunoapheresis treatments using α-gal columns every 3 days. Peripheral blood mononuclear cells were collected and analyzed for the number of cells secreting IgG antibodies directed against α-gal using an ELISPOT analysis. The fold-change in antibody secreting cells (ASCs) was calculated by normalizing to baseline values. Values are represented as the mean from 3 baboons per group.\nas §4, with “35” for “34”, “IgM” for “IgG”\nas §2, §3"}, "[5]": {"conditions": "50 mg/kg IV every 3 days, after the final (6th) treatment"}},
  "note": "Read-outs that look alike come from different tables or passages of the source.",
  "data": [
    {"compound": "CC(=O)N[C@H]1C(O)O[C@H](CO)[C@@H](O[C@@H]2O[C@H](CO)[C@H](O)[C@H](O[C@H]3O[C@H](CO)[C@H](O)[C@H](O)[C@H]3O)[C@H]2O)[C@@H]1O", "note": "(stereo partly drawn) [free sugar, αGal(1,3)Gal β 1-4 GlcNAc, reference compound]", "values": [
      {"measurement": "IC50", "setting": "[1]", "result": 50000, "unit": "µg/mL"}
    ]},
    {"compound": "(αGal(1,3)Gal β 1-4 GlcNAc)8, PEG [Example 810E]", "values": [
      {"measurement": "IC50 (FIG. 24)", "setting": "[1]", "result": 100, "unit": "µg/mL"}
    ]},
    {"compound": "(αGal(1,3)Gal β 1-4 GlcNAc)8-PEG [Example 410L]", "values": [
      {"measurement": "IC50", "setting": "[1]", "result": 500, "unit": "µg/mL"},
      {"measurement": "times more effective per coupled sugar than the free sugar", "setting": "[1]; from IC50 of 410L versus free sugar", "result": 100, "unit": "times"}
    ]},
    {"compound": "(αGal(1,3)Gal β 1-4 GlcNAc)8-PEG [Example 810S]", "values": [
      {"measurement": "IC50", "setting": "[1]; approximate, 810 S and its diafiltration fractions (Example 30)", "result": 0.005, "unit": "µg/mL"},
      {"measurement": "IC50 (FIG. 24)", "setting": "[1]", "result": 0.5, "unit": "µg/mL"},
      {"measurement": "810S still in baboon serum", "setting": "[2]", "result": "not still in circulation"},
      {"measurement": "IgG XNA levels, % of baseline values", "setting": "[3]; [5]", "result": "1-9%"},
      {"measurement": "IgM XNA levels, % of baseline values", "setting": "[3]; [5]", "result": "1-3%"},
      {"measurement": "circulating IgG and IgM XNA levels, % of initial levels", "setting": "[3]; 50 mg/kg IV, after the 1st treatment, all 3 baboons", "result": "1-13%"},
      {"measurement": "IgG XNA levels, % of baseline values", "setting": "[3]; by day 30", "result": "20-33%"},
      {"measurement": "IgM XNA levels, % of baseline values", "setting": "[3]; by day 30", "result": "8-18%"},
      {"measurement": "IgG XNA levels, % of baseline values", "setting": "[3]; day 184, 2 810S-treated baboons", "result": "30-38%"},
      {"measurement": "IgM XNA levels, % of baseline levels", "setting": "[3]; day 184, 3rd baboon", "result": 60, "unit": "%"},
      {"measurement": "IgG XNA levels", "setting": "[3]; day 184, one (3rd) baboon", "result": "returned to baseline"},
      {"measurement": "IgM XNA levels, % of baseline values", "setting": "[3]; day 184, the other 2 baboons", "result": "24-39%"},
      {"measurement": "total IgM and IgG levels", "setting": "total IgM and total IgG", "result": "remained relatively constant"},
      {"measurement": "IgM and IgG ASC levels, % of initial levels", "setting": "[4]; 1 week after day 30", "result": "about 62%"},
      {"measurement": "IgM and IgG ASCs, % of starting levels", "setting": "[4]; after the sixth treatment", "result": "3-6%"},
      {"measurement": "IgM and IgG ASCs, % initial levels", "setting": "[4]; by the fourth treatment", "result": "about 10%"},
      {"measurement": "IgM and IgG ASC levels, % of initial levels", "setting": "[4]; by the second treatment with 810S", "result": "20-40%"},
      {"measurement": "IgM and IgG ASC levels, % of initial levels", "setting": "[4]; day 30, 2 weeks after 810S treatment was terminated", "result": "about 38%"}
    ]}
  ]
}
